Read-outs that look alike come from different tables or passages of the source.
Test: Pharmacokinetics after 21 days dosing in the efficacy study (plasma, tumor and brain concentrations; plasma AUC at steady state), Example 14
Type: in vivo, female BALB/c nude mice
Conditions: for Concentration in Brain / concentration at 24 h: 24 h; for Concentration in Brain: BQL: below the lower limit of quantitation; for concentration at 4 h / concentration at 24 h / concentration at 0.25 h / concentration at 0.5 h / concentration at 1 h / concentration at 2 h / concentration at 8 h / concentration at 10 h: mouse, po
Protocol: Agents were tested in the A375 human melanoma xenografts. Compound 26 and Compound 141 were administered to BALB/c nude mice bearing A375 tumors from PG-DO and dosed via PO twice a day (BID) or third a day (TIP) or dosed P daily (QD) from PG-D. Dabrafenib was administered to BALB/c nude mice bearing A375 tumors from PG-D1 and dosed via P daily (QD). Compound 26 was dosed at 1.5 mg/kg (QD), 2 mg/kg (TID), 3 mg/kg (BID), 6 mg/kg (QD) and 10 mg/kg (BID) for 21 days. Compound 141 was dosed at 0.75 mg/kg (BID), 1 mg/kg (TID), 1.5 mg/kg (BID), 3 mg/kg (QD) and 5 mg/kg (BID) for 21 days. Dabrafenib was dosed at 100 mg/kg for 21 days. This study was non-GLP.
The plasma samples were collected at predetermined time points for PK analysis. For non-termination plasma collection: the blood samples were collected into the 1.5 mL Eppendorf tubes containing 3 μL of 0.5 M EDTA-K2. And then the anticoagulant blood samples were centrifuged at 2,500 g at 4° C. for 15 minutes. For termination plasma collection: the mice was euthanized at predetermined time points post the treatment, the blood samples were collected into the 1.5 mL Eppendorf tubes containing 15 μL of 0.5 M EDTA-K2. And then the anticoagulant blood samples were centrifuged at 2,500 g at 4° C. for 15 minutes. The plasma samples were separated into 2 aliquots. The 1st was used for PK analysis, and the 2nd was served as backup.
The tumor samples were collected at predetermined time points for PK and WB analysis. The tumor was dissected out and split into 3 parts. The 1st part was used for PK analysis, the 2nd part was used for WB analysis and the last one was used as backup for the study. The samples were transferred into pre-labeled tubes and quickly froze in liquid nitrogen within 2 minutes after dissection. The samples were stored at −80° C. before analysis.
The brain samples were collected at predetermined time points for PK and potential WB analysis. The brain was dissected out and split into 3 parts (left brain, right brain upper and right brain lower), the left brain was used for PK, the right brain upper was used for WB and the last one was used as the backup for the study. The samples were transferred into pre-labeled tubes and quickly froze in liquid nitrogen within 2 minutes after dissection. The samples were stored at −80° C. before analysis.
The harvested plasma and tumor samples were processed for pharmacokinetics analysis by LC-MS/MS with a concentration range of 1.00-1,000 ng/mL for dabrafenib in plasma and 0.0500-50 ng/mL in tumor and brain homogenate, 5.00-10,000 ng/mL for Compound 141 in plasma and 0.200~200 ng/ml in tumor and brain homogenate. 20.0~20,000 ng/mL for Compound 26 in plasma and 0.5~500 ng/mL for Compound 26 tumor and brain homogenate.
Dabrafenib, Compound 26 and Compound 141 in female BALB/c nude mice plasma (K2-EDTA), tumor and brain homogenate were analyzed by LC-MS/MS (Triple Quad 6500+ Low Mass). Verapamil (5 ng/mL) in acetonitrile: methanol (V: V=95:5) was used as the internal standard for Dabrafenib, Compound 26 and Compound 141 in plasma. Verapamil (0.5 ng/mL) in acetonitrile: methanol (V: V=95:5) was used as the internal standard for Dabrafenib, Compound 26 and Compound 141 in tumor and brain homogenate.
An aliquot of 10 μL unknown sample, calibration standard, quality control, dilute quality control, single blank and double blank samples were added to the 96-well plate. Each sample for Dabrafenib, Compound 26 and Compound 141 in plasma (except the double blank) was quenched with 200 μL IS respectively (double blank sample was quenched with 200 μL ACN: MeOH (V: V=95:5)); each sample for Dabrafenib, Compound 26 and Compound 141 in tumor and brain(except the double blank) was quenched with 100 μL IS respectively (double blank sample was quenched with 100 μL ACN: MeOH (V: V=95:5)); and then the mixture was vortex-mixed for 5 min at 800 rpm and centrifuged for 15 min at 3220 g (4000 rpm), 4° C. […]

[1] = plasma, 0.75 mg/kg p.o. BID x 21 days, mean ± SEM
[2] = plasma, 0.75 mg/kg p.o. BID x 21 days, mean ± SEM, read-out: Concentration in Plasma
[3] = plasma, 1 mg/kg p.o. TID x 21 days, mean ± SEM
[4] = plasma, 1 mg/kg p.o. TID x 21 days, mean ± SEM, read-out: Concentration in Plasma
[5] = plasma, 1.5 mg/kg p.o. BID x 21 days, mean ± SEM
[6] = plasma, 1.5 mg/kg p.o. BID x 21 days, mean ± SEM, read-out: Concentration in Plasma
[7] = plasma, 3 mg/kg p.o. QD x 21 days, mean ± SEM
[8] = plasma, 3 mg/kg p.o. QD x 21 days, mean ± SEM, read-out: Concentration in Plasma
[9] = plasma, 5 mg/kg p.o. BID x 21 days, mean ± SEM
[10] = plasma, 5 mg/kg p.o. BID x 21 days, mean ± SEM, read-out: Concentration in Plasma
[11] = tumor, 1 mg/kg p.o. TID x 21 days, mean ± SEM, read-out: Concentration in Tumor
[12] = tumor, 1.5 mg/kg p.o. BID x 21 days, mean ± SEM, read-out: Concentration in Tumor

## CCN(C)S(=O)(=O)Nc1ccc(F)c(Oc2ccc3ncn(C4CC5(CCN(C6CC7(C6)CN(c6cc8c(cc6F)c(N6CCC(=O)NC6=O)nn8C)C7)CC5)C4)c(=O)c3c2)c1C#N (stereo not drawn) [Compound 141, 6-[2-cyano-3-[[ethyl(methyl)sulfamoyl]amino]-6-fluoro-phenoxy]-3-[7-[2-[3-(2,4-dioxohexahydropyrimidin-1-yl)-5-fluoro-1-methyl-indazol-6-yl]-2-azaspiro[3.3]heptan-6-yl]-7-azaspiro[3.5]nonan-2-yl]-4-oxo-quinazoline]
0.75 mg/kg p.o. BID x 21 days
  Concentration in Brain: BQL
1 mg/kg p.o. TID x 21 days
  Concentration in Brain: BQL
1.5 mg/kg p.o. BID x 21 days
  Concentration in Brain: BQL
3 mg/kg p.o. QD x 21 days
  Concentration in Brain: BQL
brain, 0.75 mg/kg p.o. BID x 21 days, mean ± SEM, read-out: Concentration in Brain
  concentration at 4 h: 10.7 ± 2.04 ng/g
brain, 1 mg/kg p.o. TID x 21 days, mean ± SEM, read-out: Concentration in Brain
  concentration at 4 h: 12.4 ± 2.79 ng/g
brain, 1.5 mg/kg p.o. BID x 21 days, mean ± SEM, read-out: Concentration in Brain
  concentration at 4 h: 10.1 ± 1.79 ng/g
brain, 3 mg/kg p.o. QD x 21 days, mean ± SEM, read-out: Concentration in Brain
  concentration at 4 h: 22.9 ± 2.7 ng/g
brain, 5 mg/kg p.o. BID x 21 days, mean ± SEM, read-out: Concentration in Brain
  concentration at 4 h: 51.4 ± 21.7 ng/g
brain, 5 mg/kg p.o. BID x 21 days, read-out: Concentration in Brain
  concentration at 24 h: 2.25 ng/g
[1]
  concentration at 0.25 h: 369 ± 64.7 ng/mL
  concentration at 0.5 h: 732 ± 139 ng/mL
  concentration at 1 h: 1140 ± 226 ng/mL
  concentration at 2 h: 1280 ± 277 ng/mL
  concentration at 8 h: 432 ± 45.3 ng/mL
  concentration at 10 h: 343 ± 34.9 ng/mL
[2]
  concentration at 4 h: 663 ± 79 ng/mL
  concentration at 24 h: 10.8 ± 2.44 ng/mL
[3]
  concentration at 0.25 h: 950 ± 130 ng/mL
  concentration at 0.5 h: 1750 ± 165 ng/mL
  concentration at 1 h: 1930 ± 416 ng/mL
  concentration at 2 h: 1760 ± 262 ng/mL
  concentration at 8 h: 780 ± 53.4 ng/mL
  concentration at 10 h: 676 ± 42.5 ng/mL
[4]
  concentration at 4 h: 850 ± 185 ng/mL
  concentration at 24 h: 33.7 ± 4.48 ng/mL
[5]
  concentration at 0.25 h: 702 ± 91.7 ng/mL
  concentration at 0.5 h: 1360 ± 270 ng/mL
  concentration at 1 h: 1940 ± 211 ng/mL
  concentration at 2 h: 2120 ± 241 ng/mL
  concentration at 8 h: 523 ± 19.7 ng/mL
  concentration at 10 h: 328 ± 12.4 ng/mL
[6]
  concentration at 4 h: 950 ± 365 ng/mL
  concentration at 24 h: 11.2 ± 2.61 ng/mL
[7]
  concentration at 0.25 h: 1580 ± 247 ng/mL
  concentration at 0.5 h: 2850 ± 361 ng/mL
  concentration at 1 h: 5130 ± 799 ng/mL
  concentration at 2 h: 5290 ± 555 ng/mL
  concentration at 8 h: 869 ± 101 ng/mL
  concentration at 10 h: 617 ± 41.7 ng/mL
[8]
  concentration at 4 h: 2430 ± 222 ng/mL
  concentration at 24 h: 12.2 ± 1.4 ng/mL
[9]
  concentration at 0.25 h: 2930 ± 226 ng/mL
  concentration at 0.5 h: 6300 ± 457 ng/mL
  concentration at 1 h: 6340 ± 1160 ng/mL
  concentration at 2 h: 6130 ± 1280 ng/mL
  concentration at 8 h: 3260 ± 243 ng/mL
  concentration at 10 h: 2370 ± 37.1 ng/mL
[10]
  concentration at 4 h: 3730 ± 1140 ng/mL
  concentration at 24 h: 38.9 ± 5.18 ng/mL
tumor, 0.75 mg/kg p.o. BID x 21 days, mean ± SEM, read-out: Concentration in Tumor
  concentration at 4 h: 160 ± 24.9 ng/g
tumor, 0.75 mg/kg p.o. BID x 21 days, read-out: Concentration in Tumor
  concentration at 24 h: 33 ng/g
[11]
  concentration at 4 h: 390 ± 107 ng/g
  concentration at 24 h: 14.3 ± 4.44 ng/g
[12]
  concentration at 4 h: 317 ± 61.6 ng/g
  concentration at 24 h: 6.7 ng/g
tumor, 3 mg/kg p.o. QD x 21 days, mean ± SEM, read-out: Concentration in Tumor
  concentration at 4 h: 909 ± 165 ng/g
tumor, 3 mg/kg p.o. QD x 21 days, read-out: Concentration in Tumor
  concentration at 24 h: 3.01 ng/g
tumor, 5 mg/kg p.o. BID x 21 days, mean ± SEM, read-out: Concentration in Tumor
  concentration at 4 h: 1300 ± 471 ng/g
tumor, 5 mg/kg p.o. BID x 21 days, read-out: Concentration in Tumor
  concentration at 24 h: 79.3 ng/g
